Measured values taken from patent publication US20020052343A1, “Salicylamides as serine protease inhibitors” (priority 1999, published 2002).

What was measured:
human Factor Xa = target: T1, human Factor Xa (Homo sapiens, UniProt P00742); assay: Factor Xa inhibition, chromogenic substrate hydrolysis, Ki app.; format: biochemical; settings: 2-3 nM human Factor Xa, substrate 1 mM, 50 mM Tris pH 7.5, absorbance at 405 nm, read-out: FXa Ki
T1 construct: purchased Haematologic Technologies, Vt., USA
Method: Some of the compounds of the present invention show selectivity between uPA and FXa, with respect to their inhibitory properties. The effectiveness of compounds of the present invention as inhibitors of Urokinase and Factor Xa is determined by using synthetic substrates and purified Urokinase and purified human Factor Xa respectively.
The rates of hydrolysis by the chromogenic substrates were measured both in the absence and presence of compounds of the present invention. Hydrolysis of the substrates result in the release of a chromogenic moiety, which is monitored spectrophotometrically by measuring the increase in absorbance at 405 nano meter (nm). A decrease in the rate of absorbance change at 405 nm in the presence of a inhibitor is indicative of enzyme inhibition. The results of this assay are expressed as the inhibitory constant, Ki app. Factor Xa determinations were made in 50 mM Tris buffer, pH 7.5, containing 1 M NaCl, 5 mM CaCl2, 0.05% Tween-20, and 1.5 mM EDTA. Values of Ki app. were determined by allowing 2-3 nM human Factor Xa (Haematologic Technologies, Vt., USA) to react with the substrate (1 mM) in the presence of an inhibitor. Hydrolysis of the chromogenic substrate is followed spectrophotometrically at 405 nm for five minutes. The enzyme assay routinely yielded linear progression curves under these conditions. Initial velocity measurements calculated from the progress curves by a kinetic analysis program (Batch Ki; Peter Kuzmic, BioKin, Ltd., Madison, Wis.) were used to determine Ki app.

human Urokinase = target: T2, human Urokinase (Homo sapiens, UniProt P00749); assay: Urokinase (uPA) inhibition, chromogenic substrate hydrolysis, Ki app.; format: biochemical
T2 construct: purchased American Diagnostica, Conn., USA
Method: The effectiveness of compounds of the present invention as inhibitors of Urokinase and Factor Xa is determined by using synthetic substrates and purified Urokinase and purified human Factor Xa respectively.
The rates of hydrolysis by the chromogenic substrates were measured both in the absence and presence of compounds of the present invention. […] The results of this assay are expressed as the inhibitory constant, Ki app. Factor Xa determinations were made in 50 mM Tris buffer, pH 7.5, containing 1 M NaCl, 5 mM CaCl2, 0.05% Tween-20, and 1.5 mM EDTA. […] Initial velocity measurements calculated from the progress curves by a kinetic analysis program (Batch Ki; Peter Kuzmic, BioKin, Ltd., Madison, Wis.) were used to determine Ki app.
Urokinase inhibition determinations were made in 50 mM Tris (pH 7.5), 150 mM NaCl, 0.05% Tween-20, 0.002% antifoam, and 1 mM EDTA. human Urokinase (from American Diagnostica, Conn., USA). […] Initial velocity measurements calculated from the progress curves by a kinetic analysis program (Batch Ki; Peter Kuzmic, BioKin, Ltd., Madison, Wis.) were used to determine Ki app.

T1 sequence (P00742 235-488 limits assumed): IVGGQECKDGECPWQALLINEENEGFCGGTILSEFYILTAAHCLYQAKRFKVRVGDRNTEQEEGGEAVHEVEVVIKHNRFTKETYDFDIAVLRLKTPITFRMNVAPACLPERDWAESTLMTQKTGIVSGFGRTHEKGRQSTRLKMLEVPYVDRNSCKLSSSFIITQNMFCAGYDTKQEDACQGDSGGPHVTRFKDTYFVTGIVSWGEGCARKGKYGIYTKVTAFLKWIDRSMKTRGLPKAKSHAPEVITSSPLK
T1 sequence (P00742 41-179 partner limits assumed): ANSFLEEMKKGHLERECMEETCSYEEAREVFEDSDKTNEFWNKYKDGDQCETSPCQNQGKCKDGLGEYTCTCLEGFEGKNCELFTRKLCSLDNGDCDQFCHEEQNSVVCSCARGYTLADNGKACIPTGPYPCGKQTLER

SMILES | Ki (human Factor Xa) | Ki (human Urokinase)
Cc1cc(Br)c(O)c(C(=O)Nc2ccc(C(=N)N)cc2)c1 [Ex. 5] | 840 nM | 290 nM
Cc1cc(I)c(O)c(C(=O)Nc2ccc(C(=N)N)cc2)c1 [Ex. 1, N-(4—Carbamimidoyl-phenyl)-2-hydroxy-3-iodo-5-methyl-benzamide] | 880 nM | –
Cc1cc(I)c(O)c(C(=O)Nc2ccc(NC(=N)N)nc2)c1 [Ex. 205] | 290000 nM | 5500 nM
CC(C)c1cc(C(=O)Nc2ccc(C(=N)N)cc2)c(O)c(C(C)C)c1 [compound 24] | 34000 nM | 2900 nM
N=C(N)Nc1ccc(NC(=O)c2cc3ccccc3cc2O)cn1 [Ex. 201, 3-hydroxy-naphthalene-2-carboxylic acid (6-guanidino-pyridin-3-yl)-amide] | 130000 nM | 326 nM
